This note sets out measurements from patent US20200352918A1, “COMPOUNDS AND METHODS FOR TREATING OR PREVENTING FIBROSIS” (priority 2019, published 2020).

In test [1] the test system is iFA phenotype of mesenchymal-like cells on 13 kPa hydrogels. The experiment in a line: iFA-prevention phenotypic high-content drug screen (iFA model). The test is classed as cell-based, human. As to the method: Mesenchymal-like cells were cultured on 13 kPa functionalized polyacrylamide gels that were prepared as follows. 187.5 μl of 40% acrylamide, 60 μl of 2% bis-acrylamide and 8.55 μl of sodium bisulfate in a final volume of 990 μl of water was incubated for 20 min at room temperature to degas the mixture. To this mixture, 0.10% ammonium persulfate and 0.15% TEMED were added, mixed and 100 μl of the solution was added onto a 0.4% 3-(Trimethoxysily) propyl methacrylate pH 3.5 treated coverslip. A 2% dimethyl dichlorosilane in chloroform treated round glass coverslip was then inverted on the acrylamide solution and allowed to polymerize for 15 min between the two surfaces. The top coverslip was gently removed, and the bottom coverslips with the hydrogel were transferred to appropriate multi-well low adherent tissue culture plate containing coupling buffer (0.1 M sodium phosphate dibasic, 0.1 M sodium phosphate monobasic) pH 8. To functionalize the hydrogel, 1 part of 0.1 M p-benzoquinone in dioxane was added to the hydrogels containing 4 parts of coupling buffer and incubated at 37° C. for 30 min. The gel was then successively washed with 20% dioxane in water, water, 0.1 M sodium acetate buffer at pH 4.0 containing 1.0 M sodium chloride, 0.1 M sodium bicarbonate solution at pH 8.5 containing 1.0 M sodium chloride, and finally with coupling buffer at pH 7.5. The hydrogels were then coated with 0.1% gelatin for 2 hrs prior to seeding the cells. Cells were seeded at a density of 3000 cells/cm^2.
A phenotypic high-content drug screen was prepared to identify compounds capable of preventing the iFA phenotype in a 96-well format. An ImageXpress XL high-throughput imager with a 4× Plan objective (N/A 0.20) was used with image based focusing. Briefly, 100 μL media were plated in each well of 96 well plate using a Thermo Multidrop non-contact dispenser. Using a custom V&P pin tool mounted to a Beckman FX liquid handler, 1.5 μL compounds or DMSO were added. Mesenchymal-like cells were added as a suspension using the Multidrop at a density of 3.5×10^3 cells/well. The resulting compound concentration was 10 μM. Cells were imaged after 7 days of incubation at 37° C. and 5% CO2: A final of 0.5 μg/ml of Calcein AM and/or 10 μg/ml propidium iodide (viability dye) with 1 μg/ml Hoechst 33342 were added and imaged using the ImageXpress XL system. Data mining was performed using a custom module consisting of the following steps: The image background was removed using a top-hat filter with 25 μm round shape polisher. Next, cellular aggregates and individual spindle-shaped cells were identified. Aggregates of cells were defined by size with a cut-off of 60 to 200 micron and an intensity of at least 200 gray scales over background. Individual spindle-shaped cells were identified as smaller objects with cut-offs from 15 to 100 micron and a lower intensity of at least 70 gray scales over background.
Additional morphometric measurements were made by counting labeled cell nuclei and measuring total area covered with cells per well. The data resulting from the screen were batch exported through MetaXpress and uploaded into a Collaborative Drug Discovery (CDD) cloud based database (Ekins and Bunin, 2013, Methods in molecular biology 993, 139-154.). Hits were selected on a cut-off of more than 3 standard deviations from mean using data normalized to reference wells in each plate. IC50 values (the half maximal inhibitory concentration) from confirmation experiments were calculated from dose-response signal curves using the Prism software (GraphPad Software).
Signal-to-background (S/B) ratio, standard variation and variation coefficients were calculated as the signal of DMSO treated wells divided by the signal of the hit compound (AA5) treated wells. […]

Test [2] has the same test system. The test can be described thus: iFA resolution screen (reversal of fibrosis) in the iFA model. The test is classed as cell-based, human. As to conditions: phenotype formed over 10 days, then compounds added. The procedure:
Signal-to-background (S/B) ratio, standard variation and variation coefficients were calculated as the signal of DMSO treated wells divided by the signal of the hit compound (AA5) treated wells. Z′ values were used to measure assay quality which was calculated by the formula of Z′=1−3(SDTotal+SDBackground)/(MeanTotal−MeanBackground)(Inglese et al., 2006) where SDTotal and MeanTotal are the standard deviation and mean of signal for DMSO treated wells, and SDBackground and MeanBackground are the standard deviation and mean of signal for AA5 treated wells. Data normalization and curve fitting were performed as previously reported (Kariv et al., 1999, J Biomol Screen 4, 27-32.). Z′ values were obtained for the number of cellular aggregates and also calculated a phenotypic cell index as the product of cell number x area/Log(number of iFA aggregates+5). Secondary screening using α-SMA and collagen deposition was employed to further ensure efficacy and resolution of the iFA phenotype of the compounds. For the resolution screen, cells were seeded in a 96-well plate as mentioned above and compounds were added at day 13 to analyze their capacity to resolve the iFA phenotype using the same readouts as above. Dose response experiments were carried out as in the secondary screen but with at least 12 steps of a 1:1 dilution resulting in final compound concentrations from 500 μM to high nanomolar ranges.
The primary assay involved plating together the iPSCs and Table 1 compounds sourced from the library on day 1 on the hydrogel and examining the phenotype on day 7 of the culture as described herein. The secondary screen repeated the assay using compound sourced commercially or from additional library materials. The dose response refers to a 20 point dose course that ranges from picomolar to millimolar concentrations. […] As described herein, the cellular phenotype parameters evaluated included size, fluorescence intensity of the iFA phenotype, the shape factor of the cells/aggregates, and the cells' viability in the presence of viability dyes (Calcein AM).

Molecules are shown by their SMILES.

Regarding `CNC(C)Cc1cccs1` (stereo not shown) [Methiopropamine], the Dose response entry in test [1] (20 point dose course, picomolar to millimolar) is “+++ (+++ = strong effect)”. Moreover, the “Efficacy in secondary screen” value in test [1] (assay repeated with compound sourced commercially or from additional library materials) is given as “+++ (+++ = strong effect)”. Also, the “Efficacy in primary screen” value in test [1] (library compound plated with cells on day 1 on hydrogel, phenotype on day 7, 10 μM) is “+++ (+++ = strong effect)”. The Reversal of fibrosis result in test [2] is “Yes”.
